{
  "source": "paper PMC6433685",
  "about": "“Histone deacetylase inhibitor LMK235 attenuates vascular constriction and aortic remodelling in hypertension” (Journal of Cellular and Molecular Medicine, 2019)",
  "key": {"[1]": {"tested_on": "angiotensin II‐induced hypertensive mice", "assay": "Systolic BP (tail-cuff) in angiotensin II-infusion mice", "assay_type": "in vivo, CD‐1 mice", "conditions": "Ang II-infusion mice; 1 mg/kg/day i.p. for 7 days", "protocol": "(§1) All animal procedures were approved by the Animal Experimental Committee of Chonnam National University Medical School (CNU IACUC‐H‐2014‐47) and carried out in accordance with the Guide for the Care and Use of Laboratory Animals (US National Institutes of Health Publications, 8th edition, 2011). CD‐1 mice (8 weeks old, 30‐35 g) were used in this study. Hypertension was induced by angiotensin II (Ang II, 1.3 mg/kg/day) infusion using 14‐day micro‐osmotic pumps (Alzet, model 1002; infusion rate of 0.25 μL/h) or saline alone. Ang II osmotic pumps were implanted subcutaneously after the injection of ketamine (120 mg/kg) and xylazine (6.2 mg/kg). One week after Ang II infusion, mice were administered LMK235 (1 or 3 mg/kg/day) or vehicle (dimethylsulphoxide [DMSO]) via intraperitoneal injection for 7 days. Mice were divided into three groups (n = 10‐12 per group): sham + vehicle, Ang II + vehicle, and Ang II + LMK235.\nSystolic BP was measured by the tail‐cuff method (Visitech Systems, BP‐2000). Animals (mice and rats) were trained to allow for the measuring of BP before administration of the drug. Animals were trained to enter the holder at the same time more than three times a week to measure BP. For angiotensin II‐mice, systolic BP was measured when the mice were awake the day before they are killed. For SHRs, systolic BP was measured daily for 2 weeks."}, "A10 cells": {"tested_on": "A10 cells", "assay": "qRT-PCR in CaMKIIα-transfected A10 cells", "assay_type": "cell-based, rat", "protocol": "A10 cells were seeded into 12‐well dishes. A10 cells were transfected with the indicated concentrations of pCMV‐SPORT6‐CaMKIIα. After 24 hours of transfection, total RNA was extracted and quantitative real time polymerase chain reaction (qRT‐PCR) was performed. For knockdown of HDAC5, rat HDAC5 siRNA or sicontrol was used in A10 cells using RNAiMAX reagent according to the manufacturer's guidelines. A concentration of 100 nmol/L of siRNA was used.\n(§2) Total RNA from aortic tissue was isolated with TRIzol reagent (Invitrogen Life Technologies), and 1 μg of RNA was used for the reverse transcription reaction with TOPscript RT DryMIX (Enzynomics, South Korea). Quantification of mRNA levels was performed with the SYBR Green PCR kit (Enzynomics, South Korea)."}, "HDAC5": {"target": "T1, HDAC5 (Homo sapiens, UniProt Q9UQL6)", "T1 construct": "purchased BPS Bioscience 50065", "T1 sequence (Q9UQL6 whole entry)": "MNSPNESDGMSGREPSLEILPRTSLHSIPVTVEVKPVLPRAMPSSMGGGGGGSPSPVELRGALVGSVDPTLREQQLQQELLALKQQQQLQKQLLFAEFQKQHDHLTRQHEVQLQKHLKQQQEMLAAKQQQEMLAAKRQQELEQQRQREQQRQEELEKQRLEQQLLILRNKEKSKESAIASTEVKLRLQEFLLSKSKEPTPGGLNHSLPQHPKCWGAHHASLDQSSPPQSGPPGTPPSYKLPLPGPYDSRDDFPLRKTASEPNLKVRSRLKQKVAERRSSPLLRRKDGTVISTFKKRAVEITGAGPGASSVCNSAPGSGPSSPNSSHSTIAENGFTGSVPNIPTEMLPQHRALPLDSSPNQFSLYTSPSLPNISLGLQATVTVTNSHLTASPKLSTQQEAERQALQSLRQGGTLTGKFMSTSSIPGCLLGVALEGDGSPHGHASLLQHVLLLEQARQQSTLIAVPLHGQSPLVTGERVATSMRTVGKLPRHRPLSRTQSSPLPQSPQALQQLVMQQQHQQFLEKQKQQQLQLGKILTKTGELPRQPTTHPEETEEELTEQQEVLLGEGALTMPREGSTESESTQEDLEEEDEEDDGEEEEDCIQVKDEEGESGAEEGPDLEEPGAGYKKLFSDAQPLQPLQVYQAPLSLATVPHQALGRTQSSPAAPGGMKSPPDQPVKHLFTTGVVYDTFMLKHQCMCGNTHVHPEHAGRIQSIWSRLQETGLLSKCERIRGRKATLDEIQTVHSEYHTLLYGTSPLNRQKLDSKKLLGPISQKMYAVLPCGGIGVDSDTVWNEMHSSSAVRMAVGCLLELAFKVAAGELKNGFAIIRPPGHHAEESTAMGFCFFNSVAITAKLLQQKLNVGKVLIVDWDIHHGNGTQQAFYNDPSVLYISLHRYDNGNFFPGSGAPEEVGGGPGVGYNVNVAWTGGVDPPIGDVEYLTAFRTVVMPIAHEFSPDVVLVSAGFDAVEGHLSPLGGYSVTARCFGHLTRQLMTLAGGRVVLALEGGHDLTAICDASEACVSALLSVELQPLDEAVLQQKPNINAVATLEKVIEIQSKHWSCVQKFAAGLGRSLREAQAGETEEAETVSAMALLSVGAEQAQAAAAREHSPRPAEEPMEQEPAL", "assay": "HDAC5 fluorogenic enzyme assay kit (BPS Bioscience), cell-free", "assay_type": "biochemical", "conditions": "0.001-10 μmol/L inhibitor", "protocol": "Enzyme activity measurements of class I and IIa HDACs were performed using a cell‐free system and according to a method previously described.16 We used fluorogenic HDAC1 (#50061), HDAC2 (#50062), HDAC3 (#50063), HDAC4 (#50064), HDAC5 (#50065), HDAC6 (#50076), HDAC7 (#50067), HDAC8 (#50068) and HDAC9 (#50069) enzyme assay kits from BPS Bioscience (San Diego, CA, USA). To test the enzyme activity of LMK235, 0.001, 0.003, 0.01, 0.03, 0.1, 0.3, 1, 3 and 10 μmol/L concentrations were used. For the IC50 calculations, every data point was normalized to the vehicle (100% activity). The normalized data were fitted with a Hill non‐linear curve fit (OrigionPro 9.0)."}, "rat aortic rings": {"tested_on": "rat aortic rings", "assay": "Isometric tension: relaxation of U46619-induced contraction in rat aortic rings", "design": "species or system Sprague‐Dawley rats", "conditions": "U46619 30 nmol/L, LMK235 cumulative 0.1-100 μmol/L", "text": "Male Sprague‐Dawley rats were purchased from Orient Bio (Gyeonggi‐do, South Korea). The thoracic aortas and mesenteric arteries were excised and immersed in an ice‐cold, modified Krebs solution composed of NaCl (115 mmol/L), KCl (4.7 mmol/L), CaCl2 (2.5 mmol/L), MgCl2 (1.2 mmol/L), NaHCO3 (25 mmol/L), KH2PO4 (1.2 mmol/L) and dextrose (10 mmol/L). Mesenteric arteries are secondary branches of the main mesenteric trunk. The aortas and mesenteric arteries were cleaned by removing adherent connective tissue, soaked in the Krebs‐bicarbonate solution and cut into four ring segments (3.5 mm in length), as described previously.14 Some rings were denuded of endothelium by gently rubbing the internal surface with the edge of the forceps. Each aortic ring was suspended in a water‐jacketed organ bath (6 mL) maintained at 37°C and aerated with a mixture of 95% O2 and 5% CO2. Each ring was connected to an isometric force transducer (Danish Myo Technology, Skejbyparken, Aarhus N, Denmark). Rings were stretched to an optimal resting tension of 2.0 g, which was maintained throughout the experiment. Each ring was equilibrated in the organ bath solution for 90 minutes before the experiment involving the contractile response to 50 mmol/L of KCl addition. […]"}, "HDAC4": {"target": "T2, HDAC4 (Homo sapiens, UniProt P56524)", "T2 construct": "purchased BPS Bioscience 50064", "T2 sequence (P56524 whole entry)": "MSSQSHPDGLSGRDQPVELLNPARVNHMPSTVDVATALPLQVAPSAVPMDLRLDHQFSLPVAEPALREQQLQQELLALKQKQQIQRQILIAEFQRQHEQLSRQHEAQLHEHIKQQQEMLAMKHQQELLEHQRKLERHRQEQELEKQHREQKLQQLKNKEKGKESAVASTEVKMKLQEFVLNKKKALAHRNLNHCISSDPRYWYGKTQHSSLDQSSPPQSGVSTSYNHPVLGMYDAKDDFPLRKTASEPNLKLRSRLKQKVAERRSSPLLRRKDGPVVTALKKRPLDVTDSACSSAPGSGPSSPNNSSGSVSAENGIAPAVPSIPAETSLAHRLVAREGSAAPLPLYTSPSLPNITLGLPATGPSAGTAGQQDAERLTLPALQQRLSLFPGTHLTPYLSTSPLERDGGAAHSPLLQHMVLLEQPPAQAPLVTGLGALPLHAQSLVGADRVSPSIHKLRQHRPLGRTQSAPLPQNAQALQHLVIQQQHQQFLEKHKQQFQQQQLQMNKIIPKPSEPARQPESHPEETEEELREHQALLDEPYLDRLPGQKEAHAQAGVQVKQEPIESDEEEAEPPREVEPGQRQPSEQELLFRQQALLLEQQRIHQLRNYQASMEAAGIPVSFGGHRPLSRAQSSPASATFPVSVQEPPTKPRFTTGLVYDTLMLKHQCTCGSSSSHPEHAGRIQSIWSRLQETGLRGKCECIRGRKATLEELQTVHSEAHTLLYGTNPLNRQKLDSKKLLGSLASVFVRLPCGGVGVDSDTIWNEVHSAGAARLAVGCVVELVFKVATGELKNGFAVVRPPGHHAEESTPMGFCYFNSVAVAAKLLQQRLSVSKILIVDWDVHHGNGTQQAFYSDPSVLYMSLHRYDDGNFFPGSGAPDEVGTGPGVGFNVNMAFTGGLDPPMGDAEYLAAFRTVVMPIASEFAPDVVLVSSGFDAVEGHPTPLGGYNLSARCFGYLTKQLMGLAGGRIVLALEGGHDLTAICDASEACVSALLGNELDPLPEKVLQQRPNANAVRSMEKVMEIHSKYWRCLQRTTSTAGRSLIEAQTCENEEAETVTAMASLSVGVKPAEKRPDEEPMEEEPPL", "assay": "HDAC4 fluorogenic enzyme assay kit (BPS Bioscience), cell-free", "assay_type": "biochemical", "conditions": "0.001-10 μmol/L inhibitor"}, "HDAC2": {"target": "T3, HDAC2 (Homo sapiens, UniProt Q92769)", "T3 construct": "purchased BPS Bioscience 50062", "T3 sequence (Q92769 whole entry)": "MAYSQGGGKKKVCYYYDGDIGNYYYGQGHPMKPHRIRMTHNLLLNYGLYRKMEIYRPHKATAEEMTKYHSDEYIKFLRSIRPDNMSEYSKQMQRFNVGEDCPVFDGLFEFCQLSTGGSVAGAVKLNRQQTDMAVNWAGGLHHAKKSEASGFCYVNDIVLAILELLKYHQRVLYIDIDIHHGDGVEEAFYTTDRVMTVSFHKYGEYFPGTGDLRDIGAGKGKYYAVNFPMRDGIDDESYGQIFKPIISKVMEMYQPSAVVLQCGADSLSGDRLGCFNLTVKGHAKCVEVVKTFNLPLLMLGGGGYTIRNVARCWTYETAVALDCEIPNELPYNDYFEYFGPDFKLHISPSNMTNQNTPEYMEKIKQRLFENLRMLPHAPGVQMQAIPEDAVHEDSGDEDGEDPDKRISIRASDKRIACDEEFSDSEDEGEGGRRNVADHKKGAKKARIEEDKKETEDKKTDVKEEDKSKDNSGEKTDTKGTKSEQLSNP", "assay": "HDAC2 fluorogenic enzyme assay kit (BPS Bioscience), cell-free", "assay_type": "biochemical", "conditions": "0.001-10 μmol/L inhibitor"}, "[2]": {"tested_on": "cyclin D1, E2F3, p21, CaMKIIα mRNA", "assay": "Cell cycle gene and CaMKIIα mRNA (qRT-PCR) in aortas of angiotensin II-infusion mice", "assay_type": "in vivo", "conditions": "Ang II-infusion mice", "protocol": "as §1, §2"}, "AT1 and ACE1 mRNA": {"tested_on": "AT1 and ACE1 mRNA", "assay": "AT1 and ACE1 mRNA (qRT-PCR) in aortas of SHRs", "assay_type": "in vivo, rats", "protocol": "(§3) For the essential hypertension animal experiment, SHRs were used. The SHR is the most used model animal model for hypertension and is generally regarded as an essential hypertension model.13 SHRs (6 weeks old, approximately 170 g) were purchased from Charles River (Yokohama, Japan). Rats were intraperitoneally administered LMK235 or vehicle every 3 days for 2 weeks (n = 4 per group).\nas §2"}, "SHR aortas": {"tested_on": "SHR aortas", "assay": "Aortic wall thickness (H&E) in SHRs", "assay_type": "in vivo, rats", "text": "as §3, with “group). The paraffin‐embedded tissues were cut into 3‐μm‐thick sections, deparaffinized with xylene and then rehydrated with graded alcohol. Haematoxylin and eosin (H&E) staining was performed as described, with slight modifications.15 The arterial wall thickness was measured using NIS Elements Software (Nikon, Japan).” for “group).”"}},
  "data": [
    {"smiles": "Cc1cc(C)cc(C(=O)NOCCCCCC(=O)NO)c1", "note": "[LMK235]", "values": [
      {"measurement": "systolic BP", "setting": "[1]", "result": "sufficient to lower systolic BP"},
      {"measurement": "cyclin D1 mRNA levels induced by overexpression of CaMKIIα", "setting": "A10 cells; A10 cells, 1 μmol/L, 24 h", "result": "reduced"},
      {"measurement": "mRNA levels of overexpressed CaMKIIα", "setting": "A10 cells; A10 cells, 1000 nmol/L, 24 hours", "result": "did not change"},
      {"measurement": "mRNA expression of HDAC1, 2, 3, 4, 5, 7", "setting": "A10 cells; CaMKIIα-transfected A10 cells, 1 μmol/L, 24 h", "result": "significantly reduced"},
      {"measurement": "IC50", "setting": "HDAC5", "result": "> 20", "unit": "µM"},
      {"measurement": "U46619-induced vasoconstriction", "setting": "rat aortic rings; endothelium-denuded aortic rings", "result": "inhibited"},
      {"measurement": "U46619-induced vasoconstriction", "setting": "rat aortic rings; endothelium-intact aortic rings", "result": "dose dependently reduced"},
      {"measurement": "IC50", "setting": "HDAC4", "result": "> 20", "unit": "µM"},
      {"measurement": "IC50", "setting": "HDAC2", "result": 0.055, "unit": "µM"},
      {"measurement": "CaMKIIα mRNA levels in aorta", "setting": "[2]", "result": "significantly reduced"},
      {"measurement": "E2F3 mRNA levels in aorta", "setting": "[2]", "result": "significantly suppressed"},
      {"measurement": "cyclin D1 mRNA levels in aorta", "setting": "[2]", "result": "significantly suppressed"},
      {"measurement": "p21 transcript levels in aorta", "setting": "[2]", "result": "restored the repressed p21 expression"},
      {"measurement": "AT1 mRNA levels in aorta", "setting": "AT1 and ACE1 mRNA", "result": "not affected"},
      {"measurement": "aortic wall thickness", "setting": "SHR aortas", "result": "reduced"}
    ]}
  ]
}
